This note sets out measurements from ChEMBL document CHEMBL1926605, “Synthesis, structure-activity relationships, and mechanism of action of anti-HIV-1 lamellarin α 20-sulfate analogues” (Bioorg Med Chem, 2011).

Activity calls are given as the source filed them. The rule behind the calls is not given here. Where only a bound is given, the exact number is not on record here.

Series [1] deals with Human immunodeficiency virus 1. The experiment in a line: Antiviral activity against HIV1 infected in MAGIC5 cells co-cultured with Cos7 cells assessed as inhibition of viral envelope mediated cell-cell fusion at 100 uM after 24 hrs by beta galactosidase assay. The series is classed as functional, organism-based. The conditions noted are these: COS-7.
The test system of series [2] is Human immunodeficiency virus 1. The experiment in a line: Antiviral activity against LacZ-containing HIV1 in COS7 cells expressing HXB2 Env, R8.91, and pTY-EFnLacZ assessed as reduction of viral vector infection into human HeLa cells expressing CD4 after 2 days using 5-bromo-4-chloro-3-indolyl-beta-D-galactopyranoside staining. It counts as functional, organism-based. The following applies: Human immunodeficiency virus 1, HeLa, 48 h.

In series [3] the test system is HeLa. The experiment in a line: Cellular uptake in human HeLa cells expressing CD4 at 100 uM after 24 hrs by confocal laser scanning microscopy analysis. The series is classed as ADME, cell-based.
Series [4] deals with HeLa. The experiment in a line: Cytotoxicity against human HeLa cells by MTT assay. The series is classed as cell-based.
The subject of series [5] is HeLa. Put plainly: Cellular uptake in human HeLa cells expressing CD4 at 100 uM after 24 hrs by confocal laser scanning microscopy analysis in presence of methanol. The series is classed as ADME, cell-based.
Series [6] relates to HeLa. Put plainly: Cytotoxicity against human HeLa cells expressing CD4 after 24 hrs by WST-1 assay. The series is classed as cell-based. (In general: Formazan colour is commonly taken as a measure of viable cells.)
Series [7] deals with Human immunodeficiency virus 1. Put plainly: Antiviral activity against HIV1 in COS7 cells expressing HXB2 Env, R8.91, and pTY-EFnLacZ assessed as reduction of viral vector infection into human HeLa cells expressing CD4 at 100 uM after 2 days using 5-bromo-4-chloro-3-indolyl-beta-D-galactopyranoside staining. The series is classed as functional, organism-based.

By IC50 is commonly meant the midpoint of a concentration-inhibition curve. For `COc1ccc(-c2cn(CCc3ccc(OC)c(OC)c3)c3c(=O)oc4cc(OS(=O)(=O)O)c(OC)cc4c23)cc1O`, in series [1], the inhibition entry was “inactive”. Besides, in series [2], the IC50 was greater than 100 µM.
With `COc1ccc(-c2c3c4cc(OC)c(OS(=O)(=O)[O-])cc4oc(=O)c3n3ccc4cc(OC)c(OC)cc4c23)cc1O.[Na+]`, the Drug uptake result is “Not Active” in series [3] and “Active” in series [5]. This compound had an Activity in series [4] of 274 µM. Further, in series [1], the inhibition result was “Active”. The IC50 was greater than 100 µM in series [6] and 13 µM in series [2]. In addition, the result in series [7] was Active.
Take `COc1ccc(-c2c3n(c4c(=O)oc5cc(OS(=O)(=O)[O-])c(OC)cc5c24)CCc2cc(OC)c(OC)cc2-3)cc1O.[Na+]`: the Drug uptake result was “Not Active” in series [3] and “Active” in series [5]. For the same compound, in series [1], the inhibition result was “Active”. Further, the IC50 in series [6] is greater than 100 µM; in series [2] it was 15.3 µM. The outcome in series [7] was Active.
On to `COc1cc2ccn3c(c(-c4ccc(OC)c(OS(=O)(=O)[O-])c4)c4c5cc(OC)c(OS(=O)(=O)[O-])cc5oc(=O)c43)c2cc1OC.[Na+].[Na+]`, for which the Drug uptake result in series [3] is on record as “Not Active”; in series [5], “Active”. For the same compound, in series [1], the inhibition entry was “Active”. Further, the IC50 in series [6] is greater than 100 µM; in series [2] it was 15.1 µM. For the same compound, the outcome in series [7] was Active.
Consider `COc1ccc(-c2c3c4cc(OC)c(OS(=O)(=O)[O-])cc4oc(=O)c3n3ccc4cc(OS(=O)(=O)[O-])c(OC)cc4c23)cc1OS(=O)(=O)[O-].[Na+].[Na+].[Na+]`, for which the Drug uptake result in series [3] was “Not Active”; in series [5], “Active”. Besides, the inhibition entry in series [1] is “Active”. Besides, the IC50 in series [6] is greater than 100 µM; in series [2], 20.7 µM. Further, the outcome in series [7] was Active.
Regarding `COc1cc2c(cc1O)oc(=O)c1c2c(-c2ccc(OC)c(OS(=O)(=O)[O-])c2)c2c3cc(OC)c(OC)cc3ccn21.[Na+]`, the Drug uptake entry is listed as “Not Active” in series [3] and “Active” in series [5]. Also, the inhibition entry in series [1] is “Active”. Also, the IC50 is greater than 100 µM in series [6] and 14.4 µM in series [2]. The outcome in series [7] was Active.
For `COc1ccc(-c2c3c4cc(OC)c(O)cc4oc(=O)c3n3ccc4cc(OC)c(OC)cc4c23)cc1O`, the Drug uptake entry in series [3] and in series [5] was “Active” throughout. Moreover, the IC50 in series [2] was greater than 100 µM.
